Our source for the IC50 values is US9540391B2, “Isomannide derivatives as inhibitors of soluble epoxide hydrolase” (SANOFI, priority 2013, dated 2017).

For the assay, the target named is T1, recombinant sEH (Homo sapiens, UniProt P34913).
T1 construct: made in house; host or cells: Sf9 insect cells
T1 sequence (P34913 1-555): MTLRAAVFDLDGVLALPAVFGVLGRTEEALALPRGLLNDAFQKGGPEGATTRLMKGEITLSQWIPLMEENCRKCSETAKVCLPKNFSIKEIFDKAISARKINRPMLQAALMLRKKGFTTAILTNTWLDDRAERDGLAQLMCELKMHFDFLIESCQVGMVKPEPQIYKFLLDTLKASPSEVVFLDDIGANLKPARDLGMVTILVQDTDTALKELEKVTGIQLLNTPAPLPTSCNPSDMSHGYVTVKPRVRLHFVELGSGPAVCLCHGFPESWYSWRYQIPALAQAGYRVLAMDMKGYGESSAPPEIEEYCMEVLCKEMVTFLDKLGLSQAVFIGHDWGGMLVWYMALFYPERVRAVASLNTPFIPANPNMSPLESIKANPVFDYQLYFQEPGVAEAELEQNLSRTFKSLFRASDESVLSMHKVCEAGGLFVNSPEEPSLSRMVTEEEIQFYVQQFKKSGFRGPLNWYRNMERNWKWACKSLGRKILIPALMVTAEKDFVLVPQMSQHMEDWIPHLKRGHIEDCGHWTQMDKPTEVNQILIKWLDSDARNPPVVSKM
Briefly: biochemical screening assay for inhibition of soluble epoxide hydrolase (fluorometric, Phome substrate). In outline: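 Reading fluorescence before substrate addition and after completion corrected for autofluorescence. Reaction: 5 μM Phome, 2 nM recombinant human sEH (Sf9-expressed), compound 0.0001–10 μM, 25 mM Hepes with 0.01% albumin, 15 min pre-incubation then 60 min at 30 °C; IC50 derived from % inhibition.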

A word on the IC50: it is the midpoint of a concentration-inhibition curve.

For the compound `COCCCNC(=O)NC1COC2C(Oc3cccnc3C)COC12` [Example 175, 1-(3-Methoxy-propyl)-3-[(3S,3aR,-6S,6aS)-6-(2-methyl-pyridin-3-yl-oxy)-hexahydro-furo[3,2-b]furan-3-yl]-urea], the IC50 was 975 nM.

In the case of `Cc1ncccc1O[C@H]1CO[C@H]2[C@@H]1OC[C@@H]2NC(=O)NCC1CCCO1` (stereo partly drawn) [Example 176, 1-[(3S,3aR,6S,6aS)-6-(2-Methyl-pyridin-3-yloxy)-hexahydro-furo[3,2-b]furan-3-yl]-3-(tetrahydro-furan-2-ylmethyl)-urea], the IC50 came to 1450 nM.

As for `Cc1ncccc1O[C@H]1CO[C@H]2[C@@H]1OC[C@@H]2NC(=O)NCc1cccnc1` [Example 177, 1-[(3S,3aR,6S,6aS)-6-(2-Methyl-pyridin-3-yloxy)-hexahydro-furo[3,2-b]furan-3-yl]-3-pyridin-3-ylmethyl-urea], the IC50 came to 456 nM.

For `Cc1ncccc1O[C@H]1CO[C@H]2[C@@H]1OC[C@@H]2NC(=O)NC[C@H]1C[C@H]2C[C@@H]([C@@H]1C)C2(C)C` [Example 178, 1-[(3S,3aR,6S,6aS)-6-(2-Methyl-pyridin-3-yloxy)-hexahydro-furo[3,2-b]furan-3-yl]-3-((1S,2S,3S,5R)-2,6,6-trimethyl-bicyclo[3.1.1]hept-3-ylmethyl)-urea], the IC50 was 5 nM.

As to `Cc1ncccc1O[C@H]1CO[C@H]2[C@@H]1OC[C@@H]2NC(=O)NCc1ccccc1OC(F)(F)F` [Example 179, 1-[(3S,3aR,6S,6aS)-6-(2-Methyl-pyridin-3-yloxy)-hexahydro-furo[3,2-b]furan-3-yl]-3-(2-trifluoromethoxy-benzyl)-urea], the concentration for half-maximal inhibition (IC50) is less than 1 nM.

For `Cc1ncccc1OC1COC2C(NC(=O)NCc3ccc(F)cc3)COC12` [Example 180, 1-(4-Fluoro-benzyl)-3-[(3S,3aR,6S,-6aS)-6-(2-methyl-pyridin-3-yloxy)-hexahydro-furo[3,2-b]furan-3-yl]-urea], the IC50 is 55 nM.

As to `Cc1ncccc1O[C@H]1CO[C@H]2[C@@H]1OC[C@@H]2NC(=O)N[C@H]1C[C@@H]2CC[C@H]1C2` [Example 181, 1-(1S,2S,4R)-Bicyclo[2.2.1]hept-2-yl-3-[(3S,3aR,6S,6aS)-6-(2-methyl-pyridin-3-yloxy)-hexahydro-furo[3,2-b]furan-3-yl]-urea], the IC50 stood at 1 nM.

Take `Cc1ncccc1O[C@H]1CO[C@H]2[C@@H]1OC[C@@H]2NC(=O)NCC1(O)CCCCC1` [Example 182, 1-(1-Hydroxy-cyclohexylmethyl)-3-[(3S,3aR,6S,6aS)-6-(2-methyl-pyridin-3-yloxy)-hexahydro-furo[3,2-b]furan-3-yl]-urea]: the IC50 turned out to be 96 nM.

As for `COCC(C)NC(=O)N[C@H]1CO[C@H]2[C@@H]1OC[C@@H]2Oc1cccnc1C` (stereo partly drawn) [Example 183, 1-(2-Methoxy-1-methyl-ethyl)-3-[(3S,3aR,6S,6aS)-6-(2-methyl-pyridin-3-yloxy)-hexahydro-furo[3,2-b]furan-3-yl]-urea], the IC50 was 846 nM.

On to `Cc1ncccc1O[C@H]1CO[C@H]2[C@@H]1OC[C@@H]2NC(=O)NCC1(c2ccccc2)CCCC1` [Example 184, 1-[(3S,3aR,6S,6aS)-6-(2-Methyl-pyridin-3-yloxy)-hexahydro-furo[3,2-b]furan-3-yl]-3-(1-phenyl-cyclopentylmethyl)-urea], for which the IC50 was 6 nM.

In the case of `Cc1ncccc1O[C@H]1CO[C@H]2[C@@H]1OC[C@@H]2NC(=O)NC(C)(C)Cc1ccc(F)cc1` [Example 185, 1-[2-(4-Fluoro-phenyl)-1,1-dimethyl-ethyl]-3-[(3S,3aR,6S,6aS)-6-(2-methyl-pyridin-3-yloxy)-hexahydro-furo[3,2-b]furan-3-yl]-urea], the IC50 came to 29 nM.

Turning to `Cc1ncccc1O[C@H]1CO[C@H]2[C@@H]1OC[C@@H]2NC(=O)N[C@H]1C[C@H]2C[C@@H]([C@@H]1C)C2(C)C` [Example 186, 1-[(3S,3aR,6S,6aS)-6-(2-Methyl-pyridin-3-yloxy)-hexahydro-furo[3,2-b]furan-3-yl]-3-((1S,2S,3S,5R)-2,6,6-trimethyl-bicyclo[3.1.1]hept-3-yl)-urea], the IC50 was determined as 2 nM.

In the case of `Cc1ncccc1O[C@H]1CO[C@H]2[C@@H]1OC[C@@H]2NC(=O)NC(C)c1ccc(S(C)(=O)=O)cc1` (stereo partly drawn) [Example 187, 1-[1-(4-Methanesulfonyl-phenyl)-ethyl]-3-[(3S,3aR,6S,6aS)-6-(2-methyl-pyridin-3-yloxy)-hexahydro-furo[3,2-b]furan-3-yl]-urea], the IC50 is 44 nM.

Regarding `Cc1ncccc1O[C@H]1CO[C@H]2[C@@H]1OC[C@@H]2NC(=O)NCc1ccccc1OC(F)F` [Example 188, 1-(2-Difluoromethoxy-benzyl)-3-[(3S,3aR,6S,6aS)-6-(2-methyl-pyridin-3-yloxy)-hexahydro-furo[3,2-b]furan-3-yl]-urea], the IC50 turned out to be 1 nM.

With `Cc1ncccc1O[C@H]1CO[C@H]2[C@@H]1OC[C@@H]2NC(=O)NCc1ccc(OC(F)F)cc1` [Example 189, 1-(4-Difluoromethoxy-benzyl)-3-[(3S,3aR,6S,6aS)-6-(2-methyl-pyridin-3-yloxy)-hexahydro-furo[3,2-b]furan-3-yl]-urea], the IC50 turned out to be 23 nM.

As for `Cc1cnc(CNC(=O)N[C@H]2CO[C@H]3[C@@H]2OC[C@@H]3Oc2cccnc2C)cn1` [Example 190, 1-(5-Methyl-pyrazin-2-ylmethyl)-3-[(3S,3aR,6S,6aS)-6-(2-methyl-pyridin-3-yloxy)-hexahydro-furo[3,2-b]furan-3-yl]-urea], the IC50 was determined as 475 nM.

Consider `Cc1ncccc1O[C@H]1CO[C@H]2[C@@H]1OC[C@@H]2NC(=O)NCC1COC(C)(C)O1` (stereo partly drawn) [Example 191, 1-(2,2-Dimethyl-[1,3]dioxolan-4-ylmethyl)-3-[(3S,3aR,6S,6aS)-6-(2-methyl-pyridin-3-yloxy)-hexahydro-furo[3,2-b]furan-3-yl]-urea], for which the IC50 was 489 nM.

With `Cc1ncccc1O[C@H]1CO[C@H]2[C@@H]1OC[C@@H]2NC(=O)NCc1cnn(C)c1` [Example 192, 1-(1-Methyl-1H-pyrazol-4-ylmethyl)-3-[(3S,3aR,6S,6aS)-6-(2-methyl-pyridin-3-yloxy)-hexahydro-furo[3,2-b]furan-3-yl]-urea], the IC50 was determined as 1730 nM.

With `Cc1ncccc1OC1COC2C(NC(=O)NC34CC5CC(CC(O)(C5)C3)C4)COC12` [Example 193, 1-((1R,3S,5R,7S)-3-Hydroxy-adamantan-1-yl)-3-[(3S,3aR,6S,6aS)-6-(2-methyl-pyridin-3-yloxy)-hexahydro-furo[3,2-b]furan-3-yl]-urea], the IC50 was 51 nM.

With `Cc1ncccc1O[C@H]1CO[C@H]2[C@@H]1OC[C@@H]2NC(=O)NCC1COCCO1` (stereo partly drawn) [Example 194, 1-[1,4]Dioxan-2-ylmethyl-3-[(3S,3aR,6S,6aS)-6-(2-methyl-pyridin-3-yloxy)-hexahydro-furo[3,2-b]furan-3-yl]-urea], the IC50 was 1470 nM.

As for `Cc1ncccc1OC1COC2C(NC(=O)NC3C4(C)CCC(C4)C3(C)C)COC12` [Example 195, 1-[(2R,3aS,5S,6S)-6-(2-Methyl-pyridin-3-yloxy)-hexahydro-furo[3,2-b]furan-3-yl]-3-((1S,4R)-1,3,3-tri-methyl-bicyclo[2.2.1]hept-2-yl)-urea], the half-inhibitory concentration (IC50) came to 56 nM.

`Cc1ncccc1O[C@H]1CO[C@H]2[C@@H]1OC[C@@H]2NC(=O)NCC1COc2ccccc2O1` (stereo partly drawn) [Example 196, 1-(2,3-Dihydro-benzo[1,4]dioxin-2-ylmethyl)-3-[(3S,3aR,6S,6aS)-6-(2-methyl-pyridin-3-yloxy)-hexahydro-furo[3,2-b]furan-3-yl]-urea]: the concentration for half-maximal inhibition (IC50) was 26 nM.

On to `Cc1ncccc1O[C@H]1CO[C@H]2[C@@H]1OC[C@@H]2NC(=O)NC(C)(C)CN1CCOCC1` [Example 197, 1-(1,1-Dimethyl-2-morpholin-4-yl-ethyl)-3-[(3S,3aR,6S,6aS)-6-(2-methyl-pyridin-3-yloxy)-hexahydro-furo[3,2-b]furan-3-yl]-urea], for which the IC50 was 1140 nM.

As to `Cc1ncccc1O[C@H]1CO[C@H]2[C@@H]1OC[C@@H]2NC(=O)NCc1cn(C)cn1` [Example 198, 1-(1-Methyl-1H-imidazol-4-ylmethyl)-3-[(3S,3aR,6S,6aS)-6-(2-methyl-pyridin-3-yloxy)-hexahydro-furo[3,2-b]furan-3-yl]-urea], the IC50 amounted to 997 nM.

Consider `Cc1csc(CNC(=O)N[C@H]2CO[C@H]3[C@@H]2OC[C@@H]3Oc2cccnc2C)n1` [Example 199, 1-[(3S,3aR,6S,6aS)-6-(2-Methyl-pyridin-3-yloxy)-hexahydro-furo[3,2-b]furan-3-yl]-3-(4-methyl-thiazol-2-ylmethyl)-urea], for which the IC50 was 2070 nM.

With `Cc1ncccc1O[C@H]1CO[C@H]2[C@@H]1OC[C@@H]2NC(=O)NCc1cccc2c1OCCO2` [Example 200, 1-(2,3-Dihydro-benzo[1,4]dioxin-5-ylmethyl)-3-[(3S,3aR,6S,6aS)-6-(2-methyl-pyridin-3-yloxy)-hexahydro-furo[3,2-b]furan-3-yl]-urea], the IC50 was 88 nM.

On to `Cc1ncccc1O[C@H]1CO[C@H]2[C@@H]1OC[C@@H]2NC(=O)NCC1CCC(=O)N1` (stereo partly drawn) [Example 201, 1-[(3S,3aR,6S,6aS)-6-(2-Methyl-pyridin-3-yloxy)-hexahydro-furo[3,2-b]furan-3-yl]-3-(5-oxo-pyrrolidin-2-ylmethyl)-urea], for which the half-inhibitory concentration (IC50) turned out to be 5790 nM.
